# Results reported in publication PMC5698469, “Carrageenan catabolism is encoded by a complex regulon in marine heterotrophic bacteria” (Nature Communications, 2017).
# Experiments:
# [1] = target: T1, ZGAL_4655 (Zobellia galactanivorans, UniProt G0L4M6); test: beta-galactosidase activity on artificial substrate; type: biochemical
# T1 construct: gene bgaF
# T1 sequence (G0L4M6 18-845): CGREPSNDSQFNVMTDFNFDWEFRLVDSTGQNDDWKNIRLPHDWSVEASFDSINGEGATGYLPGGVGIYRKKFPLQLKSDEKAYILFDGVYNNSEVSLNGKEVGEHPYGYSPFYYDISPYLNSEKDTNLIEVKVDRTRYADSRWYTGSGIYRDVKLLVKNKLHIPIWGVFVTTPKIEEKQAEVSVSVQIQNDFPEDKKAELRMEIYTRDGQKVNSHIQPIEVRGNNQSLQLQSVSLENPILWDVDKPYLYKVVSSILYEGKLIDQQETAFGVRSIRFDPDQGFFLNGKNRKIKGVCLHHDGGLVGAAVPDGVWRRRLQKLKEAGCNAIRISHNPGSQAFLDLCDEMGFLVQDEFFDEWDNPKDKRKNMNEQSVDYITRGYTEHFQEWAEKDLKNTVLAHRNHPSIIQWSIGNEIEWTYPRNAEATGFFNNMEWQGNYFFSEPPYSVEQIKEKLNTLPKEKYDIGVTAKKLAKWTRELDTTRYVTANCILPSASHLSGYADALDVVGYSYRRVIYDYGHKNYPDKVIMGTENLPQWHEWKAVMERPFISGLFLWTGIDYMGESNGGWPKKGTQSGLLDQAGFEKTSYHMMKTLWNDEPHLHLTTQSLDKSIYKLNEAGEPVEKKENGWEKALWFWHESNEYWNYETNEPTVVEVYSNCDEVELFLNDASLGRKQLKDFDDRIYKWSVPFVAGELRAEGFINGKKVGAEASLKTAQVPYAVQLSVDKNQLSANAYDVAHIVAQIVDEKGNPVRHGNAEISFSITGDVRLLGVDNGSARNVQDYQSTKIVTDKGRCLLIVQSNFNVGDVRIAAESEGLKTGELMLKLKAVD
# [2] = target: T2, ZGAL_3633 (Zobellia galactanivorans, UniProt G0L1N0); test: as above; type: biochemical
# T2 construct: gene bgaB
# T2 sequence (G0L1N0 21-825): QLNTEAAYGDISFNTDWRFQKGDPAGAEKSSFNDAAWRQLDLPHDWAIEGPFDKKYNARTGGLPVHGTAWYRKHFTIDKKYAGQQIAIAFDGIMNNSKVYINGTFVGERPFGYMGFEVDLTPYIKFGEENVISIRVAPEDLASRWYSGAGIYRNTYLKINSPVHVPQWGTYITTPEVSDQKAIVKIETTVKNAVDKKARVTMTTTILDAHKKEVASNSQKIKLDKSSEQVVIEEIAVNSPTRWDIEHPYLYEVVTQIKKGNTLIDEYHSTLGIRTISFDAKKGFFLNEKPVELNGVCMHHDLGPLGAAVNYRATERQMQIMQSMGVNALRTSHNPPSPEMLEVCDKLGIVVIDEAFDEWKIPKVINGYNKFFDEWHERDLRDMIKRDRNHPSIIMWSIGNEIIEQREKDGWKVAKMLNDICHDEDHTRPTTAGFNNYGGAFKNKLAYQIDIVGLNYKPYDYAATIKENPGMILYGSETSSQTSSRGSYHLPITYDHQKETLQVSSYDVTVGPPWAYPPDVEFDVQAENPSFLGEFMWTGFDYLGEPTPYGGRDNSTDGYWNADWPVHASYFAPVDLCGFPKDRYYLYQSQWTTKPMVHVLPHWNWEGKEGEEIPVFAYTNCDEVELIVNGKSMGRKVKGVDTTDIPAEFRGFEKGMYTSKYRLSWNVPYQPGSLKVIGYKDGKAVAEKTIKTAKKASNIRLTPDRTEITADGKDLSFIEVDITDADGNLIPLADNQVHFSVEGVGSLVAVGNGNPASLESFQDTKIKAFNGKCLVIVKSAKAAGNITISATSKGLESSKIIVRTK
compound,measurement,setting,value
O=[N+]([O-])c1ccc(O[C@@H]2O[C@H](CO)[C@H](O)[C@H](O)[C@H]2O)cc1 [pNP-beta-D-galactopyranoside],beta-galactosidase activity on artificial substrate,[1],recombinant enzymes displayed beta-galactosidase activity on an artificial substrate (pNP-beta-D-galactopyranoside
same,beta-galactosidase activity on artificial substrate,[2],recombinant enzymes displayed beta-galactosidase activity on an artificial substrate (pNP-beta-D-galactopyranoside
